One data set concerns NCI-H1944. The data set can be described thus: Antiproliferative activity against BRM-dependent human NCI-H1944 cells assessed as growth inhibition incubated for 7 days by celltiter glo 2.0 assay. The data set is classed as functional. The note with it: NCI-H1944, 168 h, time 7 day.
Another data set deals with Calu-6. The data set can be described thus: Antiproliferative activity against human Calu-6 cells assessed as growth inhibition incubated for 7 days by celltiter glo 2.0 assay. Type of data set: functional. The note with it: Calu-6, 168 h, time 7 day.
In data set [1] the target is T1, von Hippel-Lindau disease tumor suppressor/SWI/SNF-related matrix-associated actin-dependent regulator of chromatin subfamily A member 2 (Homo sapiens, UniProt P51531+P40337). The data set can be described thus: PROTAC activity at VHL/BRM in human SW1573 cells assessed as induction of […] incubated for 22 hrs by Western blotting analysis. Type of data set: cell-based.
Target sequence in this assay (P51531 whole entry): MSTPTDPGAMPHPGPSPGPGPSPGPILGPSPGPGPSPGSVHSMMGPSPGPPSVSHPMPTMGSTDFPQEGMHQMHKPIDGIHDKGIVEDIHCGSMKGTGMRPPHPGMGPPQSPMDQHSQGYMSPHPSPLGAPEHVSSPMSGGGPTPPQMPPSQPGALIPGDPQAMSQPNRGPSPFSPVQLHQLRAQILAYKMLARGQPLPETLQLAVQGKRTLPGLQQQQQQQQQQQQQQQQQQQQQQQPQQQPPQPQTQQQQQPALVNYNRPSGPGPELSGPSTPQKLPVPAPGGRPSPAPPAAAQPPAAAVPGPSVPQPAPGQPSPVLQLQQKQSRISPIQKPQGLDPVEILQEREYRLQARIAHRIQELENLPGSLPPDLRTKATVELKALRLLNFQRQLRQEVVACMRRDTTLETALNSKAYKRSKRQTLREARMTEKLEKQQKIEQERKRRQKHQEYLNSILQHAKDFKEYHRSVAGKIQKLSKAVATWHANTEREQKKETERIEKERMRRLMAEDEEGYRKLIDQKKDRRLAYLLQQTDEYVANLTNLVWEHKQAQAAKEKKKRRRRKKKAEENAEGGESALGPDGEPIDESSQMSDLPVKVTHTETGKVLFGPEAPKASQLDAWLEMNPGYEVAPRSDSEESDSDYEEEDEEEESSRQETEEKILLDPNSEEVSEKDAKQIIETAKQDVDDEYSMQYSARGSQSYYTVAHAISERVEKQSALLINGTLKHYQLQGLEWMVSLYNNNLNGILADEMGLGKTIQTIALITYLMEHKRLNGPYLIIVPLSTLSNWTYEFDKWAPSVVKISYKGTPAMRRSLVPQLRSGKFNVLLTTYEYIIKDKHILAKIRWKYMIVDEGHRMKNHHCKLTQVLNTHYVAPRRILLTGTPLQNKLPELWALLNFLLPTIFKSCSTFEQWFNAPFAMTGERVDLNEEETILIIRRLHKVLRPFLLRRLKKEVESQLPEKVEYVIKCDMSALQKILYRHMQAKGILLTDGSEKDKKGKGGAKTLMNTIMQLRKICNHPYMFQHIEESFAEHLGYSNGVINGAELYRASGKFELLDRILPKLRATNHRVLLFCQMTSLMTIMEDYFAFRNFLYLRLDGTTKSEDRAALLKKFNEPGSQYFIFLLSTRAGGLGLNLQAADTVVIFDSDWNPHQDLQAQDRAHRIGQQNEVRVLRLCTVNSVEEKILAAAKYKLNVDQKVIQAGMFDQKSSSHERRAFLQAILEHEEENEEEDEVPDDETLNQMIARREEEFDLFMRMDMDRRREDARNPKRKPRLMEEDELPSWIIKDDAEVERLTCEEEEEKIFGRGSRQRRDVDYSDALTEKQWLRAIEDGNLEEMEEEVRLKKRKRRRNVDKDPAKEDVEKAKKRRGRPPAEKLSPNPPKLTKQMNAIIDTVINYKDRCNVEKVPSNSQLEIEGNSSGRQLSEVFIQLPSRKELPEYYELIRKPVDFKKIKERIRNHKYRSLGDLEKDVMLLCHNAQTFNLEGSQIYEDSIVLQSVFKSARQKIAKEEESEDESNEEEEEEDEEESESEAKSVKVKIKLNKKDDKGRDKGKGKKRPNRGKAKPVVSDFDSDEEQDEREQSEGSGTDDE
Target sequence in this assay (P40337 whole entry): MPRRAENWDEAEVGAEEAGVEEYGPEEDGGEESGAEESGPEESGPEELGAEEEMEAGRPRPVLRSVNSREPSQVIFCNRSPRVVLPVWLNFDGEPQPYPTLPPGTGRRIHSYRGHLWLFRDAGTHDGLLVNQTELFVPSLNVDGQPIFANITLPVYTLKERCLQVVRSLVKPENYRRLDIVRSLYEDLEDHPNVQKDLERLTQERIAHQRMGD

The target of data set [2] is von Hippel-Lindau disease tumor suppressor/SWI/SNF-related matrix-associated actin-dependent regulator of chromatin subfamily A member 4 (Homo sapiens, UniProt P51532+P40337). The data set can be described thus: PROTAC activity at VHL/ BRG1 in human SW1573 cells assessed as induction of BRG1 degradation incubated for 22 hrs by Western blotting analysis. The data set is classed as cell-based. (In western blotting, separated proteins are transferred to a membrane and probed.)

Data set [3] in a line: Metabolic stability in human liver microsome assessed as hepatic extraction ratio measured upto 60 mins by LC-MS/MS analysis. Type of data set: ADME. As to conditions: liver microsomes. Background: Microsomes from liver hold many membrane-bound enzymes, among them those of drug oxidation.
Data set [4] is described as follows: Plasma protein binding in mouse incubated for 15 mins by LC-MS/MS analysis. The data set is classed as ADME, cell-free. The note with it: read-out: PPB (converted).
Data set [5] is filed under the species Homo sapiens. The data set can be described thus: Ratio of DC50 for VHL/ BRG1 in human SW1573 cells to DC50 for VHL/BRM in human SW1573 cells. The data set is classed as cell-based.
For data set [6], the species on record is Homo sapiens. The data set can be described thus: Ratio of binding affinity to VHL/BRM bromodomain (unknown origin) assessed as ternary complex association half life by SPR analysis to binding affinity to VHL/ BRG1 bromodomain (unknown origin) assessed as ternary complex association half life by SPR analysis. (SPR reads the build-up and loss of mass on a sensor chip optically.)

Data set [7] concerns the target T1, von Hippel-Lindau disease tumor suppressor/SWI/SNF-related matrix-associated actin-dependent regulator of chromatin subfamily A member 2.
Target sequence in this assay (P40337 whole entry, looked up): as the sequence (P40337 whole entry) above
Target sequence in this assay (P51531 whole entry, looked up): as the sequence (P51531 whole entry) above
Data set [8] can be described thus: Clearance in mouse at 1 mg/kg, iv measured upto 60 mins by LC-MS/MS analysis. As to conditions: in vivo, 1 h. Type of data set: ADME, organism-based.
A short description of data set [9]: Half life in mouse at 1 mg/kg, iv measured upto 60 mins by LC-MS/MS analysis. Type of data set: ADME, organism-based. The note with it: in vivo.
Data set [10] is described as follows: Drug concentration in mouse plasma measured for 24 hrs. The data set is classed as ADME, cell-free.
For a further data set, the system named is HCC2302. The data set can be described thus: Antitumor activity against human BRM-dependent HCC2302 cells xenografted in CD-1 mouse assessed as reduction in tumor growth at 10 to 30 mg/kg, ip administered once daily for 11 days. The data set is classed as functional, organism-based. As to conditions: dose 10-30 mg/kg, time 11.0 day.
A short description of data set [11]: Toxicity in CD-1 mouse xenografted with BRM-dependent human HCC2302 cells assessed as body weight loss at 10 to 30 mg/kg, ip administered once daily for 11 days. The data set is classed as organism-based. As to conditions: in vivo, 264 h, dose 10-30 mg/kg, time 11 day.
Data set [12] is described as follows: Toxicity in CD-1 mouse xenografted with BRM-dependent human HCC2302 cells assessed as animal death at 10 to 30 mg/kg, ip measured at 9 to 13 days. Type of data set: organism-based. The note with it: in vivo, dose lower 10 mg/kg, time lower 9 day, dose upper 30 mg/kg, time upper 13 day.
Data set [13] can be described thus: Toxicity in CD-1 mouse xenografted with BRM-dependent human HCC2302 cells assessed as animal survival at 10 mg/kg, ip measured at 15 days. Type of data set: organism-based. As to conditions: in vivo, 360 h, time 15 day.
Data set [14] can be described thus: Toxicity in CD-1 mouse xenografted with BRM-dependent human HCC2302 cells assessed as tolerability at 10 mg/kg, ip measured at 15 days. The data set is classed as organism-based. As to conditions: in vivo, 360 h, time 15 day.
In data set [15] the test system is SW1573. The data set can be described thus: Induction of PALS1 degradation in human SW1573 cells at 100 nM incubated for 8 hrs by proteomics analysis. Type of data set: cell-based.
The test system of data set [16] is SW1573. The data set can be described thus: Induction of PATJ degradation in human SW1573 cells at 100 nM incubated for 8 hrs by proteomics analysis. Type of data set: cell-based.
Data set [17] addresses MAP kinase-activated protein kinase 3 (Homo sapiens) (UniProt Q16644). The data set can be described thus: Induction of MAPKAPK3 degradation in human SW1573 cells at 100 nM incubated for 8 hrs by proteomics analysis. The data set is classed as cell-based.
The target in data set [18] is Urokinase-type plasminogen activator (Homo sapiens) (UniProt P00749). The data set can be described thus: Induction of PLAU degradation in human SW1573 cells at 100 nM incubated for 8 hrs by proteomics analysis. The data set is classed as cell-based.
In data set [19] the target is Protein polybromo-1 (Homo sapiens) (UniProt Q86U86). The data set can be described thus: Induction of PBRM1 degradation in human SW1573 cells at 100 nM incubated for 8 hrs by proteomics analysis. The data set is classed as cell-based.
Data set [20] deals with Mus musculus. The data set can be described thus: In-vivo PROTAC activity at BRM/VHL in CD-1 mouse xenografted with human HCC2302 cells at 20 mg/kg, iv measured for 96 hrs. The data set is classed as functional.
Data set [21] concerns Mus musculus. The data set can be described thus: In-vivo PROTAC activity at BRM/VHL in CD-1 mouse xenografted with Murine stromal cell line at 20 mg/kg, iv measured for 96 hrs. Type of data set: functional.
Data set [22] is described as follows: Drug concentration in mouse tumor at 20 mg/kg, ip measured for 96 hrs. Type of data set: ADME, organism-based, Neoplasm. The note with it: read-out: Ct.

The structures appear in SMILES notation. Activity calls are given as the source filed them. The rule behind the calls is not given here.

Sequence of von Hippel-Lindau disease tumor suppressor/SWI/SNF-related matrix-associated actin-dependent regulator of chromatin subfamily A member 4 (P51532 whole entry): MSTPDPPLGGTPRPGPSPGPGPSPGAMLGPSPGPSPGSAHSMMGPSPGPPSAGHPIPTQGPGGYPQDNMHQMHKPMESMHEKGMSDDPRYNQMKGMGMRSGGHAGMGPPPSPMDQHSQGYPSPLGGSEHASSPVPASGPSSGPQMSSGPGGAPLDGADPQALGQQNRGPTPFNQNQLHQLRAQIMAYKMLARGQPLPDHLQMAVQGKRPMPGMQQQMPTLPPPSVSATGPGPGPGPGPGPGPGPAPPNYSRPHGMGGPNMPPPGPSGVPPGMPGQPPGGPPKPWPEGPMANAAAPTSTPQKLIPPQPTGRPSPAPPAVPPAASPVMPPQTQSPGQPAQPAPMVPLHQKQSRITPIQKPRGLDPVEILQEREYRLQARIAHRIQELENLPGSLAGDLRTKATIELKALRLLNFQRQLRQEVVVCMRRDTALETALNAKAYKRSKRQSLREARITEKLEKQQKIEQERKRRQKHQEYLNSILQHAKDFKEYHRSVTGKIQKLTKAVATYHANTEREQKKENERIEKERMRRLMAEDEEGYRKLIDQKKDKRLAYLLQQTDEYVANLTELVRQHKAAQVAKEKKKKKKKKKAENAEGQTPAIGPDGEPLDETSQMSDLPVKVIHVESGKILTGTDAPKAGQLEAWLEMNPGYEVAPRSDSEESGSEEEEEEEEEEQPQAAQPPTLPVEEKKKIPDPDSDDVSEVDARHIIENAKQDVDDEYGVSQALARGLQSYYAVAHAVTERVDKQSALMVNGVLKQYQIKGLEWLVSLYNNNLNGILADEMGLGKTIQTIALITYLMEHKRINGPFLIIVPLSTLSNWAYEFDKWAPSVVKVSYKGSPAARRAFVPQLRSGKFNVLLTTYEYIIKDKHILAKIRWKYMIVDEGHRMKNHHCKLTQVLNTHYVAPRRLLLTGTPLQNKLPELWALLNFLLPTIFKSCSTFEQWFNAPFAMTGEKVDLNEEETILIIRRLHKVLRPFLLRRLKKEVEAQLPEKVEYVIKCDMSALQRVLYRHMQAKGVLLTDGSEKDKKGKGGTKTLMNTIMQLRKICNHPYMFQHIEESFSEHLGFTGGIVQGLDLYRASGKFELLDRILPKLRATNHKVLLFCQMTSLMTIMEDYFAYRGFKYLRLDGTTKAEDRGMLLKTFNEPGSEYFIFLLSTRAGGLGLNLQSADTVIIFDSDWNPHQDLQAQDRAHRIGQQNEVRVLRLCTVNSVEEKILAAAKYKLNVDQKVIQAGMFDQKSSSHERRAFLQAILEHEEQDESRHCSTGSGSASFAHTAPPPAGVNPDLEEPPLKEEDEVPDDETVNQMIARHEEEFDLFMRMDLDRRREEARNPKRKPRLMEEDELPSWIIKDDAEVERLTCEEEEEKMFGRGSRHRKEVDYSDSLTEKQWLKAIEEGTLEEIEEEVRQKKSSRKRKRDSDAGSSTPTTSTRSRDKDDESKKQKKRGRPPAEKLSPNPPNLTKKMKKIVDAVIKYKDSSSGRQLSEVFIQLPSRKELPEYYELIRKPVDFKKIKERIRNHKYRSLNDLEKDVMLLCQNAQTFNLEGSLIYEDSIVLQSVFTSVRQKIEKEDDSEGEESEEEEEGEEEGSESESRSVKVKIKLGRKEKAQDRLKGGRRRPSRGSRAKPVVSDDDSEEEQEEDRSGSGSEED
Sequence of von Hippel-Lindau disease tumor suppressor/SWI/SNF-related matrix-associated actin-dependent regulator of chromatin subfamily A member 4 (P40337 whole entry): as the sequence (P40337 whole entry) above
Sequence of MAP kinase-activated protein kinase 3 (Homo sapiens) (Q16644 whole entry, looked up): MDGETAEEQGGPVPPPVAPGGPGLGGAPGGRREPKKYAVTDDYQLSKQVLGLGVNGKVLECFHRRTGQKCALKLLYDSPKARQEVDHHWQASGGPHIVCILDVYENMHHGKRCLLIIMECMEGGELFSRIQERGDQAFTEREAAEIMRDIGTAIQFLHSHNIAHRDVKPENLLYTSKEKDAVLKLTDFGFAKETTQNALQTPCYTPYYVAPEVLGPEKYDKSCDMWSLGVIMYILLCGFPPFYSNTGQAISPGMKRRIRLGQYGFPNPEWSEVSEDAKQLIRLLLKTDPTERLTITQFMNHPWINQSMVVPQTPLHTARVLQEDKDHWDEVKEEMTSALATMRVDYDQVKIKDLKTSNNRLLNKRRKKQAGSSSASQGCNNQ

`Cc1ncsc1-c1ccc([C@H](C)NC(=O)[C@@H]2C[C@@H](O)CN2C(=O)[C@@H](c2cc(OCCN3CCN(CCOc4cc(N5C6CCC5CN(c5cc(-c7ccccc7O)nnc5N)C6)ccn4)CC3)no2)C(C)C)cc1`: the GI50 (commonly the concentration giving 50% growth inhibition) with NCI-H1944 came out at 0.17 nM; in the data set with Calu-6, 7 nM. Further, the DC50 (as a rule, the concentration at which degradation of the target reaches its halfway point) in data set [1] was found to be 0.068 nM; in [2], 1.5 nM. In addition, the hepatic extraction ratio at 1 h in [3] is 0.72. For the same molecule, in data set [4], the fraction unbound at 0.25 h was 0.016. Also, the Ratio in the data set listed under Homo sapiens [5] is 22; in the data set listed under Homo sapiens [6], 0.33. Moreover, the T1/2 in data set [7] came to 6 s.
For `Cc1ncsc1-c1ccc([C@H](C)NC(=O)[C@@H]2C[C@@H](O)CN2C(=O)[C@@H](c2cc(OCCN3CCC(O[C@H]4C[C@H](Oc5cc(N6C7CCC6CN(c6cc(-c8ccccc8O)nnc6N)C7)ccn5)C4)CC3)no2)C(C)C)cc1`, the GI50 was 0.64 nM with NCI-H1944 and 24 nM in the data set with Calu-6. Besides, the fraction unbound at 0.25 h in data set [4] was 0.027. Moreover, in data set [8], the clearance (as a rule, the rate of elimination divided by the concentration) is 22 mL/min/kg. For the same molecule, the half-life (commonly the time in which the quantity being followed falls by half) in data set [9] is 2.6 h. This molecule also returned a concentration at 24 h in [10] of 26 nM. In addition, the result (in the data set on HCC2302; in the data set on SW1573 [15]; in the data set with SW1573 [16]; in data set [17]; in data set [18]; in data set [19]) was Active. The Activity entry is “Toxic” in [11]; “Toxic” in data set [12]; “Non-Toxic” in [13]; “Non-Toxic” in data set [14]; 64% in the data set with Mus musculus [20]; 4% with Mus musculus [21]. In addition, in data set [22], the concentration at 96 h worked out at 158 ng/g.
